Data: publication PMC7582918, “A short peptide of the C-terminal class Y helices of apolipoprotein A-I has preserved functions in cholesterol efflux and in vivo metabolic control” (Scientific Reports, 2020)

Tests used:
[1] = Stability in PBS (LC-MS up to 90 min; LC-UV up to 168 h); assay type: physicochemical
Description: (§1) Mouse CD-1 plasma (heparin) was from Novakemi AB. Analysis was performed using LC–MS/MS, a Sciex QTRAP 6500 coupled to a Waters Acquity LC system with an attached HSS T3 2 × 50 mm column. A 5%-100% acetonitrile gradient and 0.1% formic acid was used as mobile phase.
(§2) A 33-mer peptide (RG33) that corresponds to the two Class Y helices (11 and 22 residues, respectively) of the C-terminal domain of ApoA-I (corresponding to regions 209–219 and 220–241 of ApoA-I, respectively) was synthesized and chemically modified at the termini for increased stability (Fig. 1a), and analyzed by SDS-PAGE (Fig. 1b; Suppl. Fig.). Such modifications are known to lead to loss of the terminal charges of the modified peptide with potential reduction in solubility. […] Moreover, the stability of the peptide was tested by incubation for up to 90 min in either PBS or human or mouse plasma followed by LC–MS analysis of the peptide in the complex mixture, or for longer time periods (up to 168 h at 5 °C or 22 °C) in PBS followed by LC-UV analysis of the pure peptide. […] The extent of degradation in plasma was assumed not to affect the in vitro and in vivo analyses made herein. Nevertheless, while not needed for the current study, further modifications aimed at prolonging the half-life of the RG33 peptide in plasma would be beneficial for therapeutic uses.
(§3) Figure 1 Peptide characterization for RG33. (a) Full peptide sequence. (b) Peptide purity as shown by Tris/Tricine SDS PAGE visualized by coomassie staining, 5 μg/well. (c) Stability of native or refolded RG33 over time in phosphate buffer, human plasma or mouse plasma. GraphPad Prism (version 8.0) (www.graphpad.com) was used. TEXT PRINTED IN THE PICTURE: (a) RG33: MW (g/mol): 3790.42; Solubility: > 3.0 mg/ml

[2] = Stability in mouse plasma (LC-MS/MS); assay type: in vitro ADME; settings: mouse CD-1 plasma (heparin), incubation up to 90 min
Description: as §1, §2
Figure 1 Peptide characterization for RG33. […]

[3] = rHDL formation / solubilization of DMPC multilamellar vesicles, dynamic light scattering; settings: 100 nm DMPC MLVs, 4 days at 24 °C, DLS
Description: 1,2-Dimyristoyl-sn-glycero-3-phosphocholine (DMPC; Avanti Polar Lipids) was formed into 100 nm multilamellar vesicles (MLV) via extrusion using the LiposoFast system (Avestin) as previously described. MLV were incubated with RG33 at indicated ratios for 4 days at 24 °C to form rHDL. The resulting particle sizes were measured by Dynamic Light Scattering using a Zetasizer APS (Malvern Instruments).
Figure 2 Peptide structure and lipid complex formation activity of RG33. (a) Circular dichroism spectroscopy of RG33 dissolved in PBS at 0.2 mg/ml. This spectrum represents the average of five measurements using five separate solutions. (b) Helical wheel analysis of residues 209 to 241 of the ApoA-I protein. One-letter code for amino acids is used and numbered 1 to 33 with start at residue 209. (c) rHDL particles were prepared by incubating the MLVs with RG33 peptide in the molar ratios noted at 24 °C for four days. Particle size distribution was analysed by DLS and frequency curves generated for RG33. Both MLVs alone (data on pure 100 nm MLVs is adapted from[15]) and lipid-free peptide are included as controls. GraphPad Prism (version 8.0) (www.graphpad.com) was used. Data represents five individual experiments.
As described above, the amphipathic organization of the RG33 peptide is expected to promote efficient lipid-binding. […]

[4] = Stability in human plasma (LC-MS/MS); assay type: in vitro ADME; settings: human plasma (citrate), pooled from four donors, incubation up to 90 min
Description: Peptide (lyophilized powder) produced by Red Glead AB (Lund, Sweden) was reconstituted as previously described. Peptide concentration was determined using a NanoDrop 2000c spectrophotometer (Thermo Scientific), and integrity was analysed by Tris-Tricine SDS-PAGE followed by Coomassie staining and by circular dichroism spectroscopy (CD). CD spectra were acquired on a Jasco J-810 spectropolarimeter equipped with a Jasco CDF-426S Peltier, set to 25 °C[18]. Samples were loaded into a 1 mm quartz cuvette and CD spectra acquired at 25 °C in the far-UV range 200–260 nm, with a 1 nm wavelength increment. Averages of five scans were baseline-subtracted (PBS buffer; 25 mM phosphate, 150 mM NaCl) and the alpha-helical content was calculated from the molar ellipticity at 222 nm as previously described[11],[19]. Human plasma (citrate) was from Blodcentralen at the Uppsala academic hospital and pooled from four healthy volunteer blood donors after giving informed consent for general research use. […]
A 33-mer peptide (RG33) that corresponds to the two Class Y helices (11 and 22 residues, respectively) of the C-terminal domain of ApoA-I (corresponding to regions 209–219 and 220–241 of ApoA-I, respectively) was synthesized and chemically modified at the termini for increased stability (Fig. 1a), and analyzed by SDS-PAGE (Fig. 1b; Suppl. Fig.). […]

[5] = Solubility of the peptide; assay type: physicochemical; settings: peptide chemically modified at the termini
Text: as §2
as §3, with “TEXT PRINTED IN THE PICTURE: (a) RG33: MW (g/mol): 3790.42; Solubility: > 3.0 mg/ml” left out

J774 macrophages = settings: previously described; cited from earlier work
Description: To analyze this, cultured J774 macrophages were loaded with isotope-labelled cholesterol, followed by incubation with RG33 (LF or LB) at specified concentrations for 2 h (Fig. 3a).

[6] = previously shown; cited from earlier work
Text: Circular dichroism (CD) spectroscopy (Fig. 2a) was next used to assay for peptide integrity and secondary structure. The helical content of the RG33 peptide in solution was based on the CD data and estimated to be on average 31%. This is higher than the helical content of the 190–243 ApoA-I peptide which was previously shown to be in the range of 17–21% alpha-helix[11]. A high helical content combined with an amphipathic arrangement of the helices is important for the lipid-binding function. Indeed, the binding of lipids induces formation of amphipathic helixes of the ApoA-I protein[23]. In li ...

Substance	Stability in PBS, shorter incubation ([1]; PBS (phosphate buffer), incubation up to 90 min, LC-MS analysis)	Stability in PBS, longer storage at 5 °C ([1]; PBS, up to 168 h (a week) at 5 °C, LC-UV analysis of the pure peptide, data not shown)	Stability in PBS, longer storage at 22 °C ([1]; PBS, up to 168 h (a week) at 22 °C, LC-UV analysis of the pure peptide, data not shown)	Stability in mouse plasma [2]	Solubilization of DMPC MLVs at 1:50 peptide-to-lipid molar ratio [3]	Stability in human plasma [4]	Solubility [5] [µg/mL]	Fold increase in Vmax, LB vs LF (J774 macrophages)	Helical content (alpha-helix) [6]
Ac-PALEDLRQGLLPVLESFKVSFLSALEEYTKKLN-NH2 [RG33]	intact	intact	intact	some degradation	only partial solubilization	some degradation	> 3000		
RG54: Peptide corresponding to amino acid residues 190–243 of ApoA-I protein (AEYHAKATEHLSTLSEKAKPALEDLRQGLLPVLESFKVSFLSALEEYTKKLNTQ; UniProt P02647 214-267, looked up, fragment)								twofold increase	17–21%
